# From PubChem BioAssay AID179 (DTP/NCI, 2004)
# Calls of active or inactive are those of the source.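 Rule for the calls: active = compounds giving half or more protection of infected cells from virus-caused growth loss, again on retest; inactive = the rest.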
# Tested on: CEM cells HIV-1 protection, formazan growth assay
# Assay: NCI AIDS Antiviral Assay
# Details: for IC50: measured here: growth of uninfected CEM cells
# Outline: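 Protection of CEM cells against HIV-1 was scored from cell growth (soluble formazan) across five concentrations, with parallel uninfected cells. Lack of protection may reflect toxicity.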
Compound,EC50 [µM],IC50 [µM],outcome
Brc1ccc(-c2nnc(-c3nn(-c4ccccc4)c4nc5ccccc5nc34)o2)cc1,> 8.13,> 8.13,–
CC(=O)OCC1OC(NC(=S)N/N=C2\CC(c3ccccc3)Oc3ccccc32)C(OC(C)=O)C(OC(C)=O)C1OC(C)=O (stereo not given),–,–,inactive
CCCCc1c2c(nc3c1CCc1cc4cc5c(nc4nc1-3)-c1nc3c(c(CCCC)c1CC5)CCC/C3=N/OC)/C(=N\OC)CCC2,> 100,0.347,–
COc1cc(=O)cc(Cl)c(Cl)c1Cl,–,–,inactive
CC(=O)OCC1OC(n2c(C)c(N=Nc3ccc(C)cc3)c(C)c(C#N)c2=S)C(OC(C)=O)C(OC(C)=O)C1OC(C)=O (stereo not given),> 200,> 200,–
O=C1NC(=O)C(Cc2ccccc2)(Cc2ccccc2)S1,> 17.4,> 17.4,–
O=c1c2ccccc2[nH]c(=S)n1-c1cccc(C(F)(F)F)c1,> 200,> 200,–
CCCC(=O)Nc1cc2c3c(c1)CCCN3CCC2,> 200,79.4,–
Nc1nc(Cl)c(/C=N\O)c(NCC2(CO)CC(=O)C2)n1,> 200,17,–
COc1ccc(-c2nc(-c3cnccn3)n(C3OC(CO)C(O)C3O)n2)cc1 (stereo not given),> 200,> 200,–
N#Cc1c(-c2cccc3ccccc23)c2c([nH]c1=S)CCCC2,> 79.4,34.7,–
CC(=O)/C=C/c1cc([N+](=O)[O-])ccc1O,> 200,36.3,–
S=C1OC2C3C4CC5C3C(O1)C1C5C4C21 (stereo not given),–,–,inactive
Nc1ncnc2c1ncn2C1OC2CSCC2(O)C1O (stereo not given),> 200,138,–
CCC1(CCC#N)CCC(N)=CC1=O (stereo not given),> 200,> 200,–
O=c1[nH]c2cc(C(F)(F)F)ccc2nc1CBr,> 200,6.61,–
COC(=O)C(C)(NC(=O)C(CC(=O)OC(C)(C)C)NC(=O)OC(C)(C)C)c1ccccc1 (stereo not given),> 200,> 100,–
O=C(NCC(O)CNC(=O)C(F)(F)F)C(F)(F)F,–,–,inactive
O=C1CCCc2c(O)ccc(O)c21,> 380,60.3,–
CC(C)S(=O)(=O)n1c(N)nc2ccc(/C(=N/O)c3ccccc3)cc21,5.01,9.77,–
[Br][Ni][Br].[NH-]CC[NH-].[NH-]CC[NH-],> 200,67.6,–

Compound,EC50 [µM],IC50 [µM],outcome
COC1/C=C/OC2(C)Oc3c(C)c(O)c4c(O)c(c(/C=N\N(C)C56CC7CC(CC(C7)C5)C6)c(O)c4c3C2=O)NC(=O)C(C)=C/C=C/C(C)C(O)C(C)C(O)C(C)C(OC(C)=O)C1C (stereo not given),> 200,7.41,–
CC1C(c2ccc(Cl)cc2)c2cc3c(cc2OC1N1CCOCC1)OCO3 (stereo not given),> 100,21.4,–
O=[N+]([O-])c1cccc2nccc(NCCCO)c12,> 200,6.92,–
CO[C@H]1/C=C/O[C@@]2(C)Oc3c(C)c(O)c4c(O)c(c(/C=N/N5CCN(C)CC5)c(O)c4c3C2=O)NC(=O)/C(C)=C\C=C\[C@H](C)[C@H](O)[C@@H](C)[C@@H](O)[C@@H](C)[C@H](OC(C)=O)[C@@H]1C,> 151,93.3,–
CC(=O)N(C(C)=O)n1c(Cc2ccc(Cl)cc2)n[nH]c1=O,> 200,> 200,–
Cc1nc(Nc2nnc(-c3cc([N+](=O)[O-])cc([N+](=O)[O-])c3C)o2)sc1C(=O)CC(=O)Cc1nc2ccc(Cl)cc2[nH]c1=O,> 57.5,> 57.5,–
O=C1CCC(=O)c2c1c(O)c1ccncc1c2O,–,–,inactive
C[N+]12CN3CN(CP(C3)C1)C2,> 832,–,–
COc1cc(Nc2c3ccccc3nc3ccccc23)ccc1NS(C)(=O)=O,> 200,2.4,–
NC(=O)/C=C/c1c[nH]c2nccnc12,> 191,0.977,–
Cc1nc2sccn2c1C(=O)NNC(N)=S,> 372,> 372,–
N#[N+]C1=NC2C(=O)NC=NC2=N1 (stereo not given),> 83.2,> 83.2,–
C[C@]12CCC(=O)C=C1CC[C@@H]1C2CC[C@]2(C)Nc3[nH]ncc3CC12 (stereo not given in full),–,–,inactive
COc1c(Cl)cc(C(=CCCCCN[C@@H]2CC[C@@]3(C)[C@@H](CC[C@@H]4[C@@H]3CC[C@]3(C)[C@@H](C(C)CCCC(C)C)CC[C@@H]43)C2)c2cc(Cl)c(OC)c(C(=O)O)c2)cc1C(=O)O (stereo not given in full),> 200,> 200,–
Clc1cnnc2nc[nH]c12,> 1150,135,–
Cc1cc2c(cc1C(=O)CCC(=O)O)CC1(C2)Cc2cc(C)c(C(=O)CCC(=O)O)cc2C1,> 200,> 200,–
Cc1ccc2c(c1)-c1c(C#N)c(N)nc(-c3ccc(Cl)cc3)c1CCS2(=O)=O,> 200,3.16,–
COc1cc2c(c3c1C(=O)[C@H](C)[C@@H](C)O3)C=CC(C)(C)O2,> 200,50.1,–
CN(C)CCC(=O)N1C/C(=C\c2ccc(Cl)c(Cl)c2)C(=O)/C(=C/c2ccc(Cl)c(Cl)c2)C1,> 33.9,0.0437,–
O=[N+]([O-])C(/C=C(\Cl)n1nnc2ccccc21)=C(/Cl)n1nnc2ccccc21,> 200,> 200,–
CCN(CC)/C(SCc1ccccc1)=C(\C(Cl)=C(Cl)Cl)[N+](=O)[O-],> 200,34.7,–

Compound,EC50 [µM],IC50 [µM],outcome
COc1ccc(N=Nc2c(N)nn(C)c2N)cc1,–,–,inactive
Clc1ccc(C=Nc2ccc(SSc3ccc(N=Cc4ccc(Cl)cc4)cc3)cc2)cc1,> 200,22.4,–
O=c1[nH]c2nccnc2c2c([N+](=O)[O-])cccc12,> 200,> 200,–
CCOC(=O)N1CC2OC(n3cc(C)c(=O)[nH]c3=O)CC2O1 (stereo not given),> 200,> 200,–
Brc1ccc(-c2cnc3nc4[nH]c5ccccc5c4nn23)cc1,> 200,123,–
CC1(C)CC(Nc2ccc(Nc3ccccc3)cc2)CC(C)(C)N1,> 562,4.27,–
COc1cc(/C=C2\SC(=S)N(/C=C/c3nc4ccccc4[nH]c3=O)C2=O)cc(OC)c1OC,> 200,18.2,–
C[C@H]1C2=CC(=O)CC[C@@](C)(O2)[C@H]2CC[C@]3(C)[C@@H](O)CC[C@H]3[C@H]12,> 589,234,–
Cc1ccc2scc3c4ccccc4nc-3c2c1,> 200,0.479,–
C#CC(O)/C=C/CCCCCCCCC/C=C/CCCCCCCCC/C=C/C(O)C#C (stereo not given),–,–,inactive
O=C1NC(=O)C2(CC2)C(=O)N1,> 200,13.2,–
COc1ccc(N2C(=O)C3c4[nH]c5ccc(F)cc5c4C4CCC(c5ccccc5)CC4C3C2=O)cc1 (stereo not given),> 200,36.3,–
CS(=N)(=O)CCC(N)P(=O)(O)O (stereo not given),> 200,> 200,–
O=[N+]([O-])c1ccc2oc(=Nc3ccccc3)c(Nc3ccccc3)nc2c1,> 200,166,–
COc1ccc(N2C(=O)C3c4[nH]c5ccccc5c4C4CCC(c5ccccc5)CC4C3C2=O)cc1 (stereo not given),> 100,> 100,–
O=c1cnn2c(n1)OC1C(O)C(CO)OC12 (stereo not given),> 200,19.1,–
CC(=O)OCC1OC(n2cc(C)c(-n3cncn3)nc2=O)CC1N=[N+]=[N-] (stereo not given),> 200,11.5,–
CCN(CC)CCn1ncc2ccc3c(c(=O)c4cccnc4n3CCN(CC)CC)c21,> 20,0.309,–
Cc1ccccc1-c1cc(=O)c2cc(C)c(C)c(C(=O)O)c2o1,–,–,inactive
CN(C)[C@@H]1C(=O)C(C(=O)NCN2CCN(C(=N)N=C(N)N)CC2)=C(O)[C@@]2(O)C(=O)C3=C(O)c4c(O)cccc4[C@@](C)(O)[C@H]3C[C@@H]12,> 37.2,0.257,–
O=[N+]([O-])c1cc(Cl)ccc1Sc1ccc(Cl)cc1[N+](=O)[O-],> 129,> 129,–

Compound,EC50 [µM],IC50 [µM],outcome
CC(=O)Nc1ccc(S(=O)(=O)N/N=C(/C)C2CCOC2=O)cc1 (stereo not given),> 741,> 741,–
COc1ccc(N2C(=O)CC(=O)N(C(=O)COc3ccc(OCC(=O)N4C(=O)CC(=O)N(c5ccc(OC)cc5)C4=S)cc3)C2=S)cc1,> 200,50.1,–
O=C(CCc1cc(-c2ccccc2)n[nH]1)Nc1ccccc1[N+](=O)[O-],–,–,inactive
NC(=O)CNC(=O)c1ccccc1SC(=O)CC[n+]1ccccc1,> 200,102,–
C=C(CC)C(=O)c1ccc(OCC(=O)O)c(Cl)c1Cl,> 200,43.7,inactive
C/C=C1\Oc2ccc(OC)cc2S1(=O)=O,17,31.6,–
O=C1C2C(C(=O)N1c1ccccc1)C1(c3ccccc3)OC2(c2ccccc2)c2ccccc21 (stereo not given),–,–,inactive
C=CCNC(=S)N/C=C\c1c(C(=O)O)cc([N+](=O)[O-])cc1[N+](=O)[O-],> 200,> 100,–
Cc1cc(-c2ccc(N=Nc3ccc4c(S(=O)(=O)O)cc(S(=O)(=O)O)c(N)c4c3O)c(C)c2)ccc1N=Nc1ccc2c(S(=O)(=O)O)cc(S(=O)(=O)O)c(N)c2c1O,> 9.33,–,–
CC1C(=O)CC(c2cccs2)N(N=O)C1c1cccs1 (stereo not given),> 117,77.6,–
CC1=C(C(=O)O)CCC2(C)c3ccc(C(C)C)c(O)c3CCC12 (stereo not given),> 200,46.8,–
O=c1c2cnccc2cc2n1CCc1c-2[nH]c2ccccc12,> 77.6,10.2,–
CNc1ccc([N+](=O)[O-])cc1C(=O)N1CCC[C@H]1CO,> 200,> 200,–
COc1c(O)c(C=O)c2c(O)c(-c3c(C)cc4c(C(C)C)c(OC)c(O)c(C=O)c4c3O)c(C)cc2c1C(C)C,> 151,2.57,–
C=C[C@@H](OCOCC[Si](C)(C)C)[C@@H](CC)OC(CCCOC(=O)C(C)(C)C)OC (stereo not given in full),> 200,> 200,–
CC(=O)N(NC(=O)P(=O)(OC(C)C)OC(C)C)c1ccc([N+](=O)[O-])cc1,> 129,> 129,–
CSC1=NCc2c(sc3c2CCCC3)N1,> 200,35.5,–
CN(C)CCc1c2c(nc3ccccc13)C(=O)c1ccccc1C2=O,> 200,0.933,–
CC(C)=CCCC1(C)C=Cc2c(ccc3c(C)noc23)O1 (stereo not given),> 18.2,> 18.2,–
CO[C@@]1(c2ccccc2)O[C@H]2OCCC2[C@H]1c1ccc(Cl)cc1 (stereo not given in full),> 11.5,> 11.5,–
CC1(Br)Cc2ccccc2C1=O (stereo not given),–,–,inactive
